Measured values as given in patent publication US20230381176A1, “A PHARMACEUTICAL COMPOSITION AND USE THEREOF FOR TREATMENT OF CANCER” (Ascentage Pharma (Suzhou) Co., Ltd., priority 2020, published 2023).

What was measured:
ovarian PA-1 xenograft = assay: s.c. ovarian PA-1 xenograft tumor model, Compound 5 and carboplatin; type: in vivo, mouse; conditions: Compound 5 100 mg/kg orally once per day 21 days, carboplatin 50 mg/kg i.p. once on Day 1
Procedure: (§1) A subcutaneous xenograft tumor model of human tumor immunodeficient mice was established by cell inoculation: tumor cells in logarithmic growth phase were collected, counted, resuspended in 1×PBS, and the cell suspension concentration was adjusted to 2.5-5 ×10^7/mL. The tumor cells were inoculated subcutaneously in the right side of immunodeficient mice with a 1 mL syringe ([…]), 5-10×10^6/0.2 mL/mouse. All animal experiments were strictly in accordance with the specifications for the use and management of experimental animals in GenePharma Co., Ltd. and Suzhou Ascentage Pharma Co., Ltd. The calculation of relevant parameters refers to the Chinese NMPA “Guidelines for Non-Clinical Research Techniques of Cytotoxic Anti-tumor Drugs”.
(§2) Animal body weight and tumor size were measured twice weekly during the experiment. The state of the animal and the presence or absence of death were observed every day. The growth of tumor and the effects of treatment on normal behavior of animals were monitored routinely, specifically involving experimental animal activity, feeding and drinking, weight gain or loss, eyes, clothing hair and other abnormalities. The deaths and clinical symptoms observed during the experiment were recorded in the raw data. All operations for administration and measurement of mouse body weight and tumor volume were performed in a clean bench. According to the requirements of the experimental protocol, after the end of the last administration, plasma and tumor tissues were collected, weighed and photographed. The plasma and tumor samples were frozen at −80° C. for ready-to-use.
(§3) Tumor volume (TV) is calculated as: TV=a×b^2/2, wherein a and b represent the length and width of the tumor to be measured, respectively.
(§4) The relative tumor volume (RTV) is calculated as: RTV=Vt/V1, wherein V1 is the tumor volume at the start of grouping and administration, and Vt is the tumor volume measured on the t day after administration.
(§5) The evaluation index of anti-tumor activity is the relative tumor proliferation rate T/C (%), and the calculation formula thereof is: relative tumor proliferation rate T/C (%)=(TRTV/CRTV)×100%, TRTV is the RTV of treatment group, CRTV is the RTV of solvent control group.
(§6) Change of body weight (%)=(measured body weight−body weight at the start of grouping)/body weight at the start of grouping×100%.
(§7) A dose of drug is considered to be severely toxic if the body weight of mouse is reduced by more than 20% or the number of drug-related deaths exceeds 20%.
(§8) According to the description by Clarke R., Issues in experimental design and endpoint analysis in the study of experimental cytotoxic agents in vivo in breast cancer and other models [J]. Breast Cancer Research & Treatment, 1997, 46(2-3): 255-278, synergy analysis was evaluated using the following formula: synergy factor=((A/C)×(B/C))/(AB/C); A=RTV value of drug A alone group; B=RTV value of drug B alone group; C=RTV value of the solvent control group, and AB=RTV value of the A and B combination group.
(§9) Use of mRECIST (Gao et al., 2015) measured tumor responses included stable disease (SD), partial tumor regression (PR), and complete regression (CR), determined by comparing tumor volume change at day t to its baseline: tumor volume change (%)=(Vt−V1)/V1. The BestResponse was the minimum value of tumor volume change (%) for t≥10. For each time t, the average of tumor volume changes from t=1 to t was also calculated. […] Body weight of animals were monitored simultaneously. […]

[1] = tested on: PTK2 high NSCLC PDX LU-01-0604; assay: s.c. PTK2 high NSCLC PDX model LU-01-0604, Compound 5 and carboplatin; type: in vivo, mouse
Procedure: as §1, §2, §3, §4, §5, §6, §7, §8
as §9, with “calculated. BestAvgResponse was defined as the minimum value of this average for t≥10. The criteria for response (mRECIST) were adapted from RECIST criteria (Gao et al., 2015; Therasse et al., 2000) and defined as follows: mCR, BestResponse<−95% and BestAvg Response<−40%; mPR, BestResponse<−50% and BestAvgResponse<−20%; mSD, BestResponse<35% and BestAvgResponse<30%; mPD, not otherwise categorized. SD, PR, and CR were considered responders and used to calculate response rate (%).” for “calculated.”

[2] = tested on: PTK2 high ovarian PDX OV2423; assay: PTK2 high ovarian PDX model OV2423, Compound 5 and carboplatin and/or paclitaxel; type: in vivo, mouse; conditions: for RTV on Day 28 after administration (mean ± standard error) / T/C on Day 28 after administration (%): Compound 5 50 mg/kg orally once per day, carboplatin 30 mg/kg i.p. once a week, paclitaxel 10 mg/kg i.v. once a week, 28 days; for mRECIST: animals per class; for antitumor activity (conclusion in words): mouse, in vivo
Procedure: as §1, §2, §3, §4, §6, §7, §8
(§10) Use of mRECIST (Gao et al., 2015) measured tumor responses included stable disease (SD), partial tumor regression (PR), and complete regression (CR), determined by comparing tumor volume change at day t to its baseline: tumor volume change (%)=(Vt−V1)/V1. The BestResponse was the minimum value of tumor volume change (%) for t≥10. For each time t, the average of tumor volume changes from t=1 to t was also calculated. BestAvgResponse was defined as the minimum value of this average for t≥10. The criteria for response (mRECIST) were adapted from RECIST criteria (Gao et al., 2015; Therasse et al., 2000) and defined as follows: mCR, BestResponse<−95% and BestAvg Response<−40%; mPR, BestResponse<−50% and BestAvgResponse<−20%; mSD, BestResponse<35% and BestAvgResponse<30%; mPD, not otherwise categorized. SD, PR, and CR were considered responders and used to calculate response rate (%). […] Body weight of animals were monitored simultaneously. The change in body weight was calculated based on the animal weight of the first day of dosing (day 1). Tumor volume and changes in body weight (%) were represented as the mean±standard error of the mean (SEM).

[3] = tested on: PTK2 high ovarian PDX OV1385; assay: PTK2 high ovarian PDX model OV1385, Compound 5 and carboplatin and/or paclitaxel; type: in vivo, mouse; conditions: for RTV on Day 35 after administration (mean ± standard error) / T/C on Day 35 after administration (%): Compound 5 50 mg/kg orally once per day, carboplatin 30 mg/kg i.p. once a week, paclitaxel 10 mg/kg i.v. once a week, 35 days; for mRECIST on Day 35 after administration: Day 35, animals per class; for antitumor activity (conclusion in words): mouse, in vivo
Procedure: as §1, §2, §3, §4, §6, §7, §8, §10

ovarian PDX OV1658 = assay: Ovarian PDX model OV1658, Compound 5 and carboplatin and/or paclitaxel; type: in vivo, mouse; conditions: for RTV on Day 19 after administration (mean ± standard error) / T/C on Day 19 after administration (%): Compound 5 50 mg/kg orally once per day, carboplatin 30 mg/kg i.p. once a week, paclitaxel 10 mg/kg i.v. once a week, 19 days; for mRECIST on Day 19 after administration: Day 19, animals per class; for mRECIST: best response, animals per class; for antitumor activity (conclusion in words): mouse, in vivo
Procedure: as §1, §2, §3, §4, §6, §7, §8, §10

NCI-H2228 tumor cells = assay: Cell viability WST (CCK-8) assay, combination of Compound 5 and Compound 34; type: cell-based; conditions: Homo sapiens, 72 hours, single agent, read-out: Compound B IC50
Procedure: Cell plating: Anti-proliferative effects were detected by a CCK-8 (Cell Counting Kit-8, Shanghai life iLab, China) assay based on water soluble tetrazolium salt (WST). The cells were seeded in 96-well plates, and only 95 μL of complete medium was added to each negative control group. 95 μL of complete medium cell suspension was added to each well to be tested, and the cell density was (5-10)×10^4/hole. Dosing (protection from light): […] After 72 hours of action by using 6 different concentrations of Compound 34 with 3 fixed doses of Compound 5, the combination effect of Compound 5 an Compound 34 was tested. Reading: […] The plates were continuously incubated at 37 ° C. for 2-4 hours in a CO2 incubator. The OD values were measured using a microplate reader (SpectraMax Plus 384, Molecular Devices, LLC., US) under A450 nm. […] (O.D. of test well−O.D. of blank control well)/(O.D. of cell control well−O.D. of blank control well)×100%. IC50 values were calculated using Graphpad Prism 6.0 software for nonlinear regression data analysis method.

[4] = tested on: OVCAR3 s.c. ovarian xenograft; assay: OVCAR3 s.c. ovarian xenograft model, overcoming resistance to paclitaxel / paclitaxel and carboplatin; type: in vivo, mouse
Procedure: as §1
as §2, with “All operations for administration and measurement of mouse body weight and tumor volume were performed in a clean bench. According to the requirements of the experimental protocol, after the end of the last administration, plasma and tumor tissues were collected, weighed and photographed.” left out
as §3, §4
Change of body weight (%)=(measured body weight−body weight at the start of grouping)/body weight at the start of grouping×100%. […]
Use of mRECIST (Gao et al., 2015) measured tumor responses included stable disease (SD), partial tumor regression (PR), and complete regression (CR), determined by comparing tumor volume change at day t to its baseline: tumor volume change (%)=(Vt−V1)/V1. […]

[5] = tested on: OVCAR3 s.c. ovarian xenograft; type: in vivo
Procedure: as §1, §2, §3, §4, §6, §7, §8, §10

[6] = tested on: PTK2 high ovarian PDX OV2018; assay: PTK2 high ovarian PDX model OV2018, Compound 5 and paclitaxel; type: in vivo, mouse
Procedure: as §1, §2, §3, §4, §6, §7, §8, §10

A549 NSCLC xenograft = assay: s.c. A549 NSCLC lung cancer model, Compound 5 and panobinostat; type: in vivo, mouse; conditions: Compound 5 100 mg/kg orally once per day, panobinostat 3 mg/kg i.p. 5 days then 2 days break, 14 days
[7] = Compound 5 50 mg/kg orally once per day, carboplatin 30 mg/kg i.p. once per week, 29 days
[8] = Compound 5 100 mg/kg orally once per day, paclitaxel 10 mg/kg i.v. once a week, carboplatin 30 mg/kg i.v. once a week
[9] = Compound 5 50 mg/kg orally once per day, paclitaxel 10 mg/kg i.v. once a week, 35 days
[10] = best response, animals per class

Compound	RTV on Day 28 after administration (mean ± standard error) [2]	T/C on Day 28 after administration (%) [2] [%]	mRECIST [2]	antitumor activity (conclusion in words) [2]	RTV on Day 35 after administration (mean ± standard error) [3]	T/C on Day 35 after administration (%) [3] [%]	mRECIST on Day 35 after administration [3]	antitumor activity (conclusion in words) [3]	RTV on Day 19 after administration (mean ± standard error) (ovarian PDX OV1658)	T/C on Day 19 after administration (%) (ovarian PDX OV1658)	mRECIST on Day 19 after administration (ovarian PDX OV1658)	mRECIST (ovarian PDX OV1658)	antitumor activity (conclusion in words) (ovarian PDX OV1658)	further results
N.N.O=C([O-])C1(C(=O)[O-])CCC1.[Pt+2] [Carboplatin, carboplatin]	8.97 ± 1.24	47.76	2/2 PD	moderate antitumor activity	2.08 ± 0.49	51.49	2/2 PD	moderate antitumor activity	9.34 ± 2.01	68.37	2/2 PD	2/2 PD	minor antitumor activity	RTV on Day 22 after administration (mean ± standard error) (ovarian PA-1 xenograft): 15.1 ± 2.3; T/C on Day 22 after administration (%) (ovarian PA-1 xenograft): 94.97%; RTV on Day 29 after administration (mean ± standard error) [1, 7]: 11.15 ± 6.55; T/C on Day 29 after administration (%) [1, 7]: 127.72%; antitumor activity (conclusion in words) ([1]; mouse, in vivo): no antitumor activity
Cc1ccc(C(=O)Nc2ccc(CN3CCN(C)CC3)c(C(F)(F)F)c2)cc1C#Cc1cnc2[nH]ncc2c1 [Compound 34]	–	–	–	–	–	–	–	–	–	–	–	–	–	IC50 (NCI-H2228 tumor cells): 1680 nM
CC(=O)O[C@H]1C(=O)[C@@]2(C)[C@H]([C@H](OC(=O)c3ccccc3)[C@]3(O)C[C@H](OC(=O)[C@H](O)[C@@H](NC(=O)c4ccccc4)c4ccccc4)C(C)=C1C3(C)C)[C@]1(OC(C)=O)CO[C@@H]1C[C@@H]2O [Paclitaxel, paclitaxel]	9.54 ± 1.73	50.80	2/2 PD	moderate antitumor activity	1.80 ± 0.75	44.55	2/2 PD	moderate antitumor activity	11.79	86.31	2/2 PD	2/2 PD	minor antitumor activity	DCR (%) ([4]; mouse, in vivo): 20%; ORR (%) ([4]; mouse, in vivo): 0%; RTV on Day 56 after administration (mean ± standard error) ([4]; paclitaxel 10 mg/kg i.v. once a week, carboplatin 30 mg/kg i.v. once a week, Compound 5 100 mg/kg orally once per day from Day 15): 5.19 ± 0.62; RTV on Day 35 after administration (mean ± standard error) [5, 8]: 8.02 ± 1.30; T/C on Day 35 after administration (%) [5, 8]: 52.14%; mRECIST ([5]; animals per class): 5/5 PD; antitumor activity (conclusion in words) ([5]; mouse, in vivo): moderate antitumor activity; Overall regression rate (ORR), % ([5]; proportion of animals with CR or PR): 0%; Disease control rate (DCR), % ([5]; proportion of animals with CR, PR or SD): 0%; RTV on Day 35 after administration (mean ± standard error) [6, 9]: 2.87 ± 0.24; T/C on Day 35 after administration (%) [6, 9]: 118.60%; mRECIST on Day 35 after administration ([6]; Day 35, animals per class): 2/2 PD; mRECIST [6, 10]: 2/2 PD; antitumor activity (conclusion in words) ([6]; mouse, in vivo): no antitumor activity; mRECIST [3, 10]: 2/2 PD
Cc1[nH]c2ccccc2c1CCNCc1ccc(/C=C/C(=O)NO)cc1 [panobinostat, reference compound]	–	–	–	–	–	–	–	–	–	–	–	–	–	RTV on Day 14 after administration (mean ± standard error) (A549 NSCLC xenograft): 2.06 ± 0.29; T/C on Day 14 after administration (%) (A549 NSCLC xenograft): 57.54%
